Reference: paper PMC5571359, “Screening the Medicines for Malaria Venture Pathogen Box across Multiple Pathogens Reclassifies Starting Points for Open-Source Drug Discovery” (Antimicrobial Agents and Chemotherapy, 2017)
Read-outs that look alike come from different tables or passages of the source.

Columns and labels:
[1] = test system: NF54-pfs16-LUC-GFP stage IV gametocytes; experiment: Plasmodium falciparum late stage gametocyte (LSG) image-based assay; type: cell-based
[2] = test system: T. cruzi intracellular amastigotes; experiment: Intracellular anti-Trypanosoma cruzi image-based assay (amastigotes); type: cell-based
3T3 host cells = experiment: T. cruzi assay, activity against 3T3 host cells; type: cell-based; settings: reference compound set; IA = inactive at 16.4 μM
Protocol: page 4: […] Puromycin, 71 chloroquine, artesunate, DHA, pyronaridine and pyrimethamine were also tested in 72 IC50 format to act as internal reference compounds. 73 74 Intracellular anti-Trypanosoma cruzi Assay Protocol 75 The host cell cytoplasm, in which the parasite resides, is identified by the fluorescent 76 marker, HCS CellMask Green. Parasite and host cell nuclei are detected with the 77 fluorescent DNA intercalator, Hoechst 33342. The Opera® High Content Screening 78 System is used to take images of wells and a spot detection algorithm is used to 79 identify parasites within the cytoplasm. 80 81 Briefly, 1x 10^3 3T3 cells were added to collagen coated 384-well plates and following 82 24 hrs incubation at 37 °C, a multiplicity of infection (MOI) of 5:1 parasite: host cells 83 were added to the plate using a Multidrop liquid handler. Following additional 24 hrs 84 incubation, extracellular parasites were washed from the plates and RPMI with no […] 86 added to all wells. The final volume of media in the primary screening assay, before 87 addition of compound, was modified slightly to 55 µL. One µL of compounds, provided 88 by Compounds Australia, were diluted by the addition of 25 µL of sterile water. This […] 91 donovani). Five microliters of this dilution was added to assay plates. The final […] The final concentrations of compounds in the […] Following 48 hrs incubation in the presence 97 of compounds, wells were fixed, stained and read on the Opera® High Content 98 Screening System to assess compound activity. 99 The Z′-factor, as a measure of assay reproducibility, was determined from a plate […] The positive control used to calculate activity against […] To 103 assess the sensitivity of the T. cruzi assay, activity of the reference compounds 104 benznidazole, NFX, posaconazole and puromycin were determined. […] 108 resazurin as a measure of parasite viability. 109 T. b. brucei trypanosomes were cultured in vitro in HM1-9 medium supplemented with […] Fifty-five µL of logarithmic phase […] 112 incubated for 24 hrs at 37°C /5% CO2. Compounds were subsequently added to the […] Following […] 116 37°C / 5% CO2 followed by 22 hrs at room temperature. […] The percent

[3] = test system: T. b. brucei 427 bloodstream trypanosomes; experiment: T. b. brucei resazurin viability assay; type: cell-based, Trypanosoma brucei brucei
[4] = test system: L. donovani MHOM/IN/80/DD8 intracellular amastigotes; experiment: Leishmania donovani intracellular amastigote assay in THP-1 cells; type: cell-based; settings: for IC50: reference compound set, IA = inactive at 20 μM
[5] = test system: Plasmodium falciparum 3D7 asexual blood stage; settings: for screening concentrations at which red blood cell (RBC) lysis was witnessed: human
P. falciparum ABS = settings: cited from earlier work; for EC50: ChEMBL Data
liver stage = settings: ref Pbox supporting information; cited from earlier work
HepG2 = settings: ref PBox supporting information, cited from earlier work; for CC50: read-out: HepG2 PBox CC50 µM
HEK293 cells = experiment: HEK293 resazurin cell cytotoxicity assay
[6] = test system: P. falciparum stage V gametocytes; settings: cited from earlier work; for IC50: stage V gametocytes, ref PBox supporting information, read-out: PF stage V GAMS PBox IC50
[7] = test system: Plasmodium falciparum 3D7 asexual blood stage; experiment: microbe, parasite or virus in culture
[8] = reference compound set, 11-point dose response, IA = inactive at 20 μM, read-out: IC50 P. falciparum NF54 LSG
[9] = reference compound set, IA = inactive at 16.4 μM, read-out: IC50 T. cruzi intracellular amastigotes
[10] = reference compound set, IA = inactive at 20 μM, read-out: IC50 T. brucei brucei trypomastigotes
[11] = read-out: IC50 L. donovani n = 1, first test
[12] = read-out: IC50 L. donovani n = 2, second test
[13] = read-out: IC50 P. falciparum 3D7 ABS, reference compound set, 11-point dose response, IA = inactive at 20 μM
[14] = Homo sapiens, HEK293, read-out: HEK % Inhibition 20uM/IC50 Discovery Biology (IA)
[15] = P. falciparum 3D7, ref PBox supporting information, read-out: Pf 3D7 Pbox IC50
[16] = read-out: Antiplasmodial IC50 (ABS), PBox compounds, P. falciparum 3D7
[17] = 3D7, read-out: Antiplasmodial IC50 (ABS), PBox compounds, P. falciparum 3D7
[18] = 3D7, read-out: activity against P. falciparum (novel antiplasmodial actives of the tuberculosis set)
[19] = Plasmodium falciparum, NF54, read-out: IC50 P. falciparum NF54 LSG, reference compound set, 11-point dose response, IA = inactive at 20 μM
[20] = Trypanosoma cruzi, reference compound set, IA = inactive at 16.4 μM, read-out: IC50 T. cruzi intracellular amastigotes
[21] = Leishmania donovani, THP-1, read-out: IC50 L. donovani n = 1, first test
[22] = Leishmania donovani, THP-1, read-out: IC50 L. donovani n = 2, second test

Q: Which results are given for `C[C@H]1COc2c(N3CCN(C)CC3)c(F)cc3c(=O)c(C(=O)O)cn1c23` [Levofloxacin (–)-ofloxacin, reference compound]?
A: IC50 [1, 8]: > 20 µM; IC50 [2, 9]: > 16.4 µM; IC50 (3T3 host cells): > 16.4 µM; IC50 [3, 10]: > 20 µM; IC50 [4, 11]: > 20 µM; IC50 [4, 12]: > 20 µM; IC50 [5, 13]: > 20 µM

Q: With `C[C@H](C(N)=O)N1CCCC[C@@H]1c1ccc(OCc2cccc(F)c2)cc1` [MMV676270] as the compound, how does the “activity in the Discovery Biology stage IV gametocyte (LSG) assay” value [1] read?
A: no activity

Q: And the “activity in the Discovery Biology ABS assay” value [5]?
A: no activity

Q: What about the EC50 (P. falciparum ABS; P. falciparum, read-out: TCMDC (ref 93) EX50) of the same compound?
A: 0.99 µM

Q: What about the IC50 (P. falciparum ABS; read-out: literature ABS activity) of the same compound?
A: 0.99 µM

Q: And the IC50 (liver stage)?
A: 1.77 µM

Q: What about the CC50 (HepG2) of the same compound?
A: > 10 µM

Q: And the IC50 (HEK293 cells; [14])?
A: > 20 µM

Q: With `O=C(C1CCN(c2nnnn2-c2ccccc2)CC1)N1CCc2ccccc2C1` [MMV009135] as the compound, how does the “activity in the Discovery Biology stage IV gametocyte (LSG) assay” value [1] read?
A: did not show any activity

Q: What about the “activity in the Discovery Biology ABS assay” value [5] of the same compound?
A: did not show any activity

Q: What about the EC50 (P. falciparum ABS; NITD, read-out: NITD (ref 94) EC50) of the same compound?
A: 1.3 µM

Q: And the EC50 (P. falciparum ABS; TCMDC, read-out: TCMDC (ref 93) EX50)?
A: 0.71 µM

Q: Which “screening concentrations at which red blood cell (RBC) lysis was witnessed” value [5] does the source give for `CNC(=O)CNc1nc(-c2ccccn2)nc2scc(-c3ccccc3)c12` [MMV1029203] here?
A: ≥ 2 µM

Q: And the IC50 (P. falciparum ABS; [15])?
A: > 2 µM

Q: And the IC50 [6]?
A: 0.84 µM

Q: What about the IC50 (HEK293 cells; [14]) of the same compound?
A: > 20 µM

Q: Which results are given for `c1ccc(C[C@@H]2CN(c3nccc(Oc4ccc(-n5ccnc5)cc4)n3)CCN2)cc1` [MMV687749]?
A: IC50 [5, 16]: 2.08 µM; CC50 (HepG2; HepG2 cytotoxicity): 29 µM; IC50 [7, 17]: 2 µM; IC50 [7, 18]: < 2 µM

Q: Which IC50 ([2]; Trypanosoma cruzi, intracellular amastigotes, read-out: T cruzi Discovery Biology IC50) does the source give for `COc1ccc(OC)c(NCc2ccc3nc(N)nc(N)c3c2Cl)c1` [MMV675968] here?
A: 1.33 µM

Q: What about the IC50 ([3]; Trypanosoma brucei, read-out: T b.brucei Discovery Biology IC50) of the same compound?
A: 2.07 µM

Q: And the “SI HEK (P. falciparum 3D7)” value ([5]; HEK293)?
A: 7.4

Q: And the “SI HepG2 (P. falciparum 3D7)” value ([5]; HEPG2 (PBox data))?
A: 113

Q: And the “HepG2 PBox CC20” value (HepG2; HepG2)?
A: 3.4 µM

Q: And the IC50 [7, 17]?
A: 0.03 µM

Q: What about the IC50 ([7]; 3D7, read-out: Pf 3D7 Discovery Biology IC50, P. falciparum 3D7 asexual blood stage) of the same compound?
A: 0.033 µM

Q: What about the IC50 (HEK293 cells; Homo sapiens, HEK293, read-out: HEK % Discovery Biology IC50) of the same compound?
A: 0.221 µM

Q: What does the source list for `CCc1ccc(C(NCc2nc(N)nc(N(C)C)n2)C(C)C)cc1` (stereo not shown) [MMV1019989]?
A: screening concentrations at which red blood cell (RBC) lysis was witnessed [5]: ≥ 2 µM; IC50 (P. falciparum ABS; [15]): > 2 µM; IC50 [6]: 0.076 µM; IC50 (HEK293 cells; [14]): > 20 µM

Q: Which results are given for `CC(=O)OC[C@H]1O[C@@H]([S-])[C@H](OC(C)=O)[C@@H](OC(C)=O)[C@@H]1OC(C)=O.CCP(CC)CC.[Au+]` [Auranofin, reference compound]?
A: IC50 [1, 8]: 0.55 µM; IC50 [2, 9]: 3.02 µM; IC50 (3T3 host cells): 4.9 µM; IC50 [3, 10]: 0.24 µM; IC50 [4, 11]: 0.63 µM; IC50 [4, 12]: 2 µM; IC50 [5, 13]: 0.7 µM; IC50 (HEK293 cells; read-out: IC50 mammalian cell cytotoxicity HEK293, reference compound set): 2.2 µM

Q: With `CCN(CC)CCCCCCNc1cc(OC)cc2c(C)ccnc12` [Sitamaquine, reference compound] as the compound, how does the IC50 [1, 19] read?
A: 0.982 µM

Q: And the IC50 [2, 20]?
A: > 16.4 µM

Q: And the IC50 (3T3 host cells)?
A: > 16.4 µM

Q: And the inhibition at 20 µM ([3]; Trypanosoma brucei, reference compound set, 20 μM, read-out: percent inhibition at the top screening dose, T. brucei brucei)?
A: 91%

Q: And the IC50 [4, 21]?
A: > 20 µM

Q: What about the IC50 [4, 22] of the same compound?
A: > 20 µM

Q: What about the IC50 ([7]; 3D7, read-out: IC50 P. falciparum 3D7 ABS, reference compound set, 11-point dose response, IA = inactive at 20 μM) of the same compound?
A: 2.03 µM

Q: What about the “percent inhibition at the top screening dose, HEK293” value (HEK293 cells; reference compound set) of the same compound?
A: 100%

Q: With `N=C(N)c1ccc(OCCCCCOc2ccc(C(=N)N)cc2)cc1` [Pentamidine, reference compound] as the compound, how does the IC50 [1, 19] read?
A: 1.43 µM

Q: What about the IC50 [2, 20] of the same compound?
A: > 16.4 µM

Q: What about the IC50 (3T3 host cells) of the same compound?
A: > 16.4 µM

Q: What about the IC50 ([3]; Trypanosoma brucei, in-house control stock, not the PBox sample, read-out: IC50 of standard in-house assay control, T. brucei brucei) of the same compound?
A: < 0.001 µM

Q: And the IC50 ([3]; Trypanosoma brucei, reference compound set, IA = inactive at 20 μM, read-out: IC50 T. brucei brucei trypomastigotes)?
A: < 0.02 µM

Q: What about the IC50 [4, 21] of the same compound?
A: > 20 µM

Q: What about the IC50 [4, 22] of the same compound?
A: > 20 µM

Q: And the “activity against L. donovani at 20 μM” value ([4]; PBox sample, 20 μM)?
A: did not show activity

Q: And the IC50 ([7]; 3D7, read-out: IC50 P. falciparum 3D7 ABS)?
A: 0.01 µM

Q: What about the “percent inhibition at the top screening dose, HEK293” value (HEK293 cells; reference compound set) of the same compound?
A: 75%

Q: For `CCNC(=O)C(C)Nc1nc(-c2cccnc2)nc2sc(C)c(C)c12` (stereo not shown) [MMV1037162], which “screening concentrations at which red blood cell (RBC) lysis was witnessed” value [5] is on record?
A: ≥ 2 µM

Q: And the IC50 (P. falciparum ABS; [15])?
A: > 2 µM

Q: And the IC50 [6]?
A: 0.61 µM

Q: What about the IC50 (HEK293 cells; [14]) of the same compound?
A: > 20 µM

Q: Which results are given for `Cc1ccc(-c2cc(C(=O)Nc3cccnc3)c3cc(Br)ccc3n2)cc1` [MMV016838]?
A: activity in the Discovery Biology stage IV gametocyte (LSG) assay [1]: not to be active; activity in the Discovery Biology ABS assay [5]: not to be active; IC50 (P. falciparum ABS; Pf 3D7, ref Pathogen Box supporting information, read-out: Pf 3D7 Pbox IC50): 0.1 µM; activity against gametocytes (stage V), PBox supporting information ([6]; ref Pbox supporting information): known to be active; activity against liver stage, PBox supporting information (liver stage): known to be active

Q: For `NCCC[C@](N)(C(=O)O)C(F)F` [α-Difluoromethylornithine, reference compound], which IC50 [1, 8] is on record?
A: > 20 µM

Q: And the IC50 [2, 9]?
A: > 16.4 µM

Q: What about the IC50 (3T3 host cells) of the same compound?
A: > 16.4 µM

Q: What about the IC50 [3, 10] of the same compound?
A: > 20 µM

Q: What about the IC50 [4, 11] of the same compound?
A: > 20 µM

Q: What about the IC50 [4, 12] of the same compound?
A: > 20 µM

Q: What about the IC50 ([5]; read-out: IC50 P. falciparum 3D7 ABS) of the same compound?
A: > 20 µM

Q: Which results are given for `Cc1cnc(N2CCN[C@@H](Cc3ccccc3)C2)nc1Oc1ccc(-n2ccnc2)cc1` [MMV687765]?
A: IC50 ([1]; Plasmodium falciparum, NF54, read-out: Pf Stage IV GAMS Discovery Biology IC50 µM, stage IV gametocytes, Discovery Biology): 4.28 µM; IC50 [5, 16]: 2.01 µM; CC50 (HepG2; HepG2 cytotoxicity): 14.1 µM; IC50 [7, 17]: 2 µM; IC50 [7, 18]: < 2 µM
